Measured values reported in patent US9464084B2, “P2X7 modulators” (Janssen Pharmaceutica NV, priority 2013, dated 2016).

Legend:
[1] = molecular target: T1, P2X7 (Homo sapiens (Human), UniProt Q99572); assay: Ca2+ flux (FLIPR) in 1321N1 cells expressing recombinant human P2X7 channel; assay type: cell-based; conditions: 250 μM BzATP;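 further: Calcium-4 dye-loaded cells exposed to compound for 30 min before agonist addition, fluorescence change read 180 s after agonist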
[2] = molecular target: T1, P2X7; assay: P2X7 antagonism in human PBMCs (LPS + Bz-ATP induced IL-1β release, ELISA); assay type: cell-based; conditions: LPS 30 ng/ml, Bz-ATP 0.5 mM; for PBMC 10 μM (% control): compound 10 μM; for PBMC 1 μM (% control): compound 1 μM;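 on all read-outs here: PBMCs from donor human blood, with a further 1.5 h incubation of the cells in the assay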
[3] = molecular target: T1, P2X7; assay: Radioligand binding, tritiated A-804598, human P2X7-1321N1 cell membranes; conditions: 1 hour at 4° C.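 Further: ki obtained from the binding IC50 after correction for tracer concentration and tracer affinity.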
Protocol: On the day of the experiment, cell membrane preparations were made according to standard published methods. […] The assay was terminated by filtration (GF/B filters pre-soaked with 0.3% PEI) and washed with washing buffer (Tris-HCl 50 mM). The IC50 generated in the binding assay was corrected for tracer concentration and affinity of the tracer to derive at the affinity (Ki) of the test compounds.

[4] = molecular target: rat P2X7 (Rattus norvegicus (Rat), UniProt Q64663); assay: Ca2+ flux (FLIPR) in 1321N1 cells expressing recombinant rat P2X7 channel; assay type: cell-based; conditions: 250 μM BzATP;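 further: Calcium-4 dye fluorescence change read 180 s after agonist addition, following 30 min cell preincubation with test compound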
rat P2X7, sequence (Q64663 whole entry): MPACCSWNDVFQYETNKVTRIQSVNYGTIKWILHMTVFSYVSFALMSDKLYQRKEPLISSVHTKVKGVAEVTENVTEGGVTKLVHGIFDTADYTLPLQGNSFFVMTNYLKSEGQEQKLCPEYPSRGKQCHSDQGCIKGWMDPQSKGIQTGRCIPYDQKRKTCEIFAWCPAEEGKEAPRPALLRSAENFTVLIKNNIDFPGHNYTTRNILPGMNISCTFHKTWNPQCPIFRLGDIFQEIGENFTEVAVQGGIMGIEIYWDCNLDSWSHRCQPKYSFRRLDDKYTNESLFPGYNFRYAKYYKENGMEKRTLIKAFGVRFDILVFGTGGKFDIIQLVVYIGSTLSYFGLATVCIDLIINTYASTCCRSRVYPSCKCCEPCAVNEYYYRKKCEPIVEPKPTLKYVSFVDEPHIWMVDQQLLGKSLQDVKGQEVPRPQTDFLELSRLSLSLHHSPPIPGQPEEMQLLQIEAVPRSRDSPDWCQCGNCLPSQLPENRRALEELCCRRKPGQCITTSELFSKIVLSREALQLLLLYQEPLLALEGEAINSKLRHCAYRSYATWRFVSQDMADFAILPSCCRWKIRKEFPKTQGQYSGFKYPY

T1 sequence (Q99572 whole entry): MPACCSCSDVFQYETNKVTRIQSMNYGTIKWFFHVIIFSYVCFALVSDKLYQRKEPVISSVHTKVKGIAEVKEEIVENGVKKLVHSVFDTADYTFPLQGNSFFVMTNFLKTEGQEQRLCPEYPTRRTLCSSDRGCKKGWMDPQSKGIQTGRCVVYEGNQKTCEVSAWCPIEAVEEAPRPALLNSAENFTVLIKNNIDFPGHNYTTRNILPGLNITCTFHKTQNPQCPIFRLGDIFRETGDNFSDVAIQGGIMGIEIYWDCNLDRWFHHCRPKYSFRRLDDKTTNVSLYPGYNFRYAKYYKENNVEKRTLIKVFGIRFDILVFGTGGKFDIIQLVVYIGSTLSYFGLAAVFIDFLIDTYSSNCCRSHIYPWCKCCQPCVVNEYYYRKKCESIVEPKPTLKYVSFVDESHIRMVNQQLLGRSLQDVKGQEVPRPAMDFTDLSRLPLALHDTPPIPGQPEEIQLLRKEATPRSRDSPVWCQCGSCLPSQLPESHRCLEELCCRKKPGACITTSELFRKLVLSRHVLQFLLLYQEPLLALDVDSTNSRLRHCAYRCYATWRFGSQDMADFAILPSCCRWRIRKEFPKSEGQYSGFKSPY

Row | SMILES | IC50 [1] | PBMC 10 μM (% control) [2] | Ki [3] | IC50 [4] | PBMC 1 μM (% control) [2]
1 | C[C@H]1c2nnn(-c3ccccn3)c2CCN1C(=O)c1ccc(F)c(Cl)c1Cl (single isomer, unassigned) [Example 142, (S*)-(2,3-Dichloro-4-fluorophenyl)(4-methyl-1-(pyridin-2-yl)-6,7-dihydro-1H-[1,2,3]triazolo[4,5-c]pyridin-5(4H)-yl)methanone] | 2 nM | 33.8 % control | 10 nM | – | –
2 | C[C@H]1c2nnn(-c3cccc(F)n3)c2CCN1C(=O)c1cccc(C(F)(F)F)c1Cl (single isomer, unassigned) [Example 147, (S*)-(2-Chloro-3-(trifluoromethyl)phenyl)(1-(6-fluoropyridin-2-yl)-4-methyl-6,7-dihydro-1H-[1,2,3]triazolo[4,5-c]pyridin-5(4H)-yl)methanone] | 11.3 nM | −8.9 % control | 39.8 nM | 507 nM | –
3 | C[C@@H]1Cc2c(nnn2-c2cc(F)ccn2)CN1C(=O)c1cccc(C(F)(F)F)c1Cl (single isomer, unassigned) [Example 198, (6R*)-5-{[2-Chloro-3-(trifluoromethyl)phenyl]carbonyl}-1-(4-fluoropyridin-2-yl)-6-methyl-4,5,6,7-tetrahydro-1H-[1,2,3]triazolo[4,5-c]pyridine] | 180 nM | 1.3 % control | 631 nM | – | –
4 | C[C@H]1Cc2c(nnn2-c2cc(F)ccn2)CN1C(=O)c1cccc(C(F)(F)F)c1Cl (single isomer, unassigned) [Example 199, (6S*)-5-{[2-Chloro-3-(trifluoromethyl)phenyl]carbonyl}-1-(4-fluoropyridin-2-yl)-6-methyl-4,5,6,7-tetrahydro-1H-[1,2,3]triazolo[4,5-c]pyridine] | 8.6 nM | 0.0 % control | 39.8 nM | – | –
5 | C[C@H]1Cc2c(nnn2-c2ncc(F)cn2)CN1C(=O)c1ccc(Cl)c(F)c1Cl (single isomer, unassigned) [Example 218, (6S*)-5-[(2,4-Dichloro-3-fluorophenyl)carbonyl]-1-(5-fluoropyrimidin-2-yl)-6-methyl-4,5,6,7-tetrahydro-1H-[1,2,3]triazolo[4,5-c]pyridine] | – | 6.1 % control | 2.5 nM | – | –
6 | O=C(c1cccc(C(F)(F)F)c1Cl)N1CCc2c(ncn2-c2ccccn2)C1 [Example 1, (2-Chloro-3-(trifluoromethyl)phenyl)(1-(pyridin-2-yl)-6,7-dihydro-1H-imidazo[4,5-c]pyridin-5(4H)-yl)methanone] | 6.1 nM | – | 75.9 nM | – | 11.5 % control
7 | O=C(c1cccc(C(F)(F)F)c1Cl)N1CCc2c(ncn2-c2cnccn2)C1 [Example 6, (2-Chloro-3-(trifluoromethyl)phenyl)(1-(pyrazin-2-yl)-6,7-dihydro-1H-imidazo[4,5-c]pyridin-5(4H)-yl)methanone] | 9.4 nM | – | 42.7 nM | – | 14.3 % control
8 | CCC1c2ncn(-c3cnccn3)c2CCN1C(=O)c1cccc(C(F)(F)F)c1Cl (centres unmarked) [Example 15, (2-Chloro-3-(trifluoromethyl)phenyl)(4-ethyl-1-(pyrazin-2-yl)-6,7-dihydro-1H-imidazo[4,5-c]pyridin-5(4H)-yl)methanone] | 87.5 nM | – | 158 nM | – | 9.1 % control
9 | CC1c2ncn(-c3ncccc3F)c2CCN1C(=O)c1cccc(C(F)(F)F)c1Cl (centres unmarked) [Example 21, (2-Chloro-3-(trifluoromethyl)phenyl)(1-(3-fluoropyridin-2-yl)-4-methyl-6,7-dihydro-1H-imidazo[4,5-c]pyridin-5(4H)-yl)methanone] | 78.5 nM | 1.6 % control | 126 nM | – | –
10 | O=C(c1cccc(C(F)(F)F)c1F)N1CCc2c(nc(C(F)(F)F)n2-c2ccccc2)C1 [Example 57, 5-{[2-Fluoro-3-(trifluoromethyl)phenyl]carbonyl}-1-phenyl-2-(trifluoromethyl)-4,5,6,7-tetrahydro-1H-imidazo[4,5-c]pyridine] | 718 nM | 46.7 % control | 794 nM | – | –
11 | O=C(c1cccc(Cl)c1Cl)N1CCc2c(ncn2-c2ccn[nH]2)C1 [Example 60, 5-[(2,3-Dichlorophenyl)carbonyl]-1-(1H-pyrazol-5-yl)-4,5,6,7-tetrahydro-1H-imidazo[4,5-c]pyridine] | 55.7 nM | 8.4 % control | 100 nM | – | –
12 | O=C(c1cccc(C(F)(F)F)c1Cl)N1CCc2c(nnn2-c2ncc(F)cn2)C1 [Example 64, 5-{[2-Chloro-3-(trifluoromethyl)phenyl]carbonyl}-1-(5-fluoropyrimidin-2-yl)-4,5,6,7-tetrahydro-1H-[1,2,3]triazolo[4,5-c]pyridine] | 14.3 nM | −9.2 % control | 31.6 nM | – | –
13 | O=C(c1cccc(C(F)(F)F)c1Cl)N1CCc2c(nnn2-c2cnccn2)C1c1ccccc1 (centres unmarked) [Example 77, 5-{[2-Chloro-3-(trifluoromethyl)phenyl]carbonyl}-4-phenyl-1-pyrazin-2-yl-4,5,6,7-tetrahydro-1H-[1,2,3]triazolo[4,5-c]pyridine] | – | – | 398 nM | 6.3 nM | 31.7 % control
14 | Cn1nc(-c2ccccc2)c2c1CN(C(=O)c1cccc(Cl)c1Cl)CC2 [Example 103, 6-[(2,3-Dichlorophenyl)carbonyl]-1-methyl-3-phenyl-4,5,6,7-tetrahydro-1H-pyrazolo[3,4-c]pyridine] | 392 nM | – | 275 nM | – | 56.0 % control
15 | Cn1nc(-c2cccnc2)c2c1CN(C(=O)c1cccc(C(F)(F)F)c1Cl)CC2 [Example 108, 6-{[2-Chloro-3-(trifluoromethyl)phenyl]carbonyl}-1-methyl-3-pyridin-3-yl-4,5,6,7-tetrahydro-1H-pyrazolo[3,4-c]pyridine] | – | – | 100 nM | 794 nM | 1.1 % control
16 | O=C(c1cccc(C(F)(F)F)c1Cl)N1CCc2c(-c3ccc(F)cc3)n[nH]c2C1 [Example 110, 6-{[2-Chloro-3-(trifluoromethyl)phenyl]carbonyl}-3-(4-fluorophenyl)-4,5,6,7-tetrahydro-2H-pyrazolo[3,4-c]pyridine] | 10 nM | – | 182 nM | – | −15.1 % control
17 | O=C(c1cccc(C(F)(F)F)c1Cl)N1CCc2c(nnn2-c2ccccc2OCCF)C1 [Example 126, (2-Chloro-3-(trifluoromethyl)phenyl)(1-(2-(2-fluoroethoxy)phenyl)-6,7-dihydro-1H-[1,2,3]triazolo[4,5-c]pyridin-5(4H)-yl)methanone] | 85.5 nM | – | 93.3 nM | – | 71.7 % control
18 | O=C(c1cccc(C(F)(F)F)c1Cl)N1CCc2c(nnn2-c2cccc(F)n2)C1 [Example 135, (2-Chloro-3-(trifluoromethyl)phenyl)(1-(6-fluoropyridin-2-yl)-6,7-dihydro-1H-[1,2,3]triazolo[4,5-c]pyridin-5(4H)-yl)methanone] | 48.2 nM | 1.7 % control | 100 nM | – | –
19 | CC1Cc2c(nnn2-c2cc(F)ccn2)CN1C(=O)c1cccc(C(F)(F)F)c1Cl (centres unmarked) [Example 176, (2-Chloro-3-(trifluoromethyl)phenyl)(1-(4-fluoropyridin-2-yl)-6-methyl-6,7-dihydro-1H-[1,2,3]triazolo[4,5-c]pyridin-5(4H)-yl)methanone] | 8 nM | 7.3 % control | 31.6 nM | – | –
20 | CC1Cc2c(nnn2-c2ncc(F)cn2)CN1C(=O)c1ccc(Cl)c(F)c1Cl (centres unmarked) [Example 216, 5-[(2,4-Dichloro-3-fluorophenyl)carbonyl]-1-(5-fluoropyrimidin-2-yl)-6-methyl-4,5,6,7-tetrahydro-1H-[1,2,3]triazolo[4,5-c]pyridine] | – | 0.6 % control | 12.6 nM | – | –
21 | CC1c2nnn(-c3ncco3)c2CCN1C(=O)c1cccc(C(F)(F)F)c1Cl (centres unmarked) [Example 250] | 8.6 nM | −1.3 % control | 39.8 nM | – | –
22 | CC1c2ncn(-c3ccc(F)cn3)c2CCN1C(=O)c1ccc(F)c(Cl)c1Cl (centres unmarked) [Example 261, (2,3-dichloro-4-fluorophenyl)(1-(5-fluoropyridin-2-yl)-4-methyl-6,7-dihydro-1H-imidazo[4,5-c]pyridin-5(4H)-yl)methanone] | 19.4 nM | −3.1 % control | 36.3 nM | – | –
23 | Cc1c(C(=O)N2CCc3c(ncn3-c3ccc(F)cn3)C2C)cccc1C(F)(F)F (centres unmarked) [Example 263, (1-(5-fluoropyridin-2-yl)-4-methyl-6,7-dihydro-1H-imidazo[4,5-c]pyridin-5(4H)-yl)(2-methyl-3-(trifluoromethyl)phenyl)methanone] | 16.1 nM | −1.6 % control | 55 nM | – | –
24 | Cc1c(C(=O)N2CCc3c(ncn3-c3ccc(F)cn3)C2)cccc1C(F)(F)F [Example 312, (1-(5-fluoropyridin-2-yl)-6,7-dihydro-1H-imidazo[4,5-c]pyridin-5(4H)-yl)(2-methyl-3-(trifluoromethyl)phenyl)methanone] | 157 nM | 9.5 % control | 39.8 nM | – | –
25 | O=C(c1cccc(Cl)c1Cl)N1CCc2c(n[nH]c2-c2cncnc2)C1 [Example 330, (2,3-dichlorophenyl)(3-(pyrimidin-5-yl)-4,5-dihydro-2H-pyrazolo[3,4-c]pyridin-6(7H)-yl)methanone] | > 10000 nM | 33.8 % control | – | > 10000 nM | –
26 | Cc1nc2c(n1-c1ccccc1)CCN(C(=O)c1cccc(Cl)c1Cl)C2 [Example 331, (2,3-dichlorophenyl)(2-methyl-1-phenyl-6,7-dihydro-1H-imidazo[4,5-c]pyridin-5(4H)-yl)methanone] | 148 nM | −11.0 % control | 178 nM | – | –
